34 molecules from ChEMBL document CHEMBL4196001, “Design, semisynthesis, α-glucosidase inhibitory, cytotoxic, and antibacterial activities of p-terphenyl derivatives” (Eur J Med Chem, 2018) can be followed below.

Counter-ions that a name gives are not always drawn. Calls of active or inactive are those of the source. The rule behind the calls is not given here.

Data set [1] can be described thus: Cytotoxicity against human Chang cells at 10 uM by SRB assay. The format is cell-based. For orientation: The SRB assay estimates cell density from bound dye.
Data set [2] relates to HeLa. The data set is described as follows: Cytotoxicity against human HeLa cells at 10 uM by SRB assay. The class given is functional, cell-based.
The subject of data set [3] is HepG2. Kind of data set: Cytotoxicity against human HepG2 cells at 10 uM by SRB assay. The format is functional, cell-based.
In data set [4] the target is T1, Alpha glucosidase (Homo sapiens, UniProt O43451+P10253+P14410+Q2M2H8). The data set is described as follows: Inhibition of human alpha-glucosidase expressed in Saccharomyces cerevisiae using p-nitrophenyl-alpha-D-glucopyranoside as substrate after 15 mins.
The subject of data set [5] is A549. The data set is described as follows: Cytotoxicity against human A549 cells at 10 uM by SRB assay. The class given is functional, cell-based.
A short description of data set [6]: Cytotoxicity against human Chang cells by SRB assay. The class given is cell-based.
Data set [7] relates to HeLa. Kind of data set: Cytotoxicity against human HeLa cells by SRB assay. The format is functional, cell-based.
The test system of data set [8] is HepG2. The data set is described as follows: Cytotoxicity against human HepG2 cells by SRB assay. The format is functional, cell-based.
For data set [9], the system named is A549. Kind of data set: Cytotoxicity against human A549 cells by SRB assay. The class given is functional, cell-based.
Data set [10] deals with T1, Alpha glucosidase. The data set is described as follows: Inhibition of human alpha-glucosidase expressed in Saccharomyces cerevisiae at 10 uM using p-nitrophenyl-alpha-D-glucopyranoside as substrate after 15 mins by two-fold serial dilution method.

Consider `COc1cc(-c2ccc(OCCC(C)C)cc2)c(OC)c(O)c1-c1ccc(O)cc1`, for which, in data set [1], the Activity result is “Non-Toxic”. The outcome in the data set with HeLa [2], in the data set on HepG2 [3] and in the data set with A549 [5] was inactive. The same molecule had an IC50 on Alpha glucosidase [4] of 14.3 µM.

On to `C=CCOc1ccc(-c2cc(OC)c(-c3ccc(O)cc3)c(OCC=C)c2OC)cc1`, for which the half-maximal inhibitory concentration (IC50) turned out to be 8.77 µM against Alpha glucosidase [4], 0.15 µM with HeLa [7], 0.43 µM with HepG2 [8] and 0.25 µM in the data set with A549 [9]. Also, in [6], the CC50 is less than 0.62 µM.

For the molecule `O=C1C=C(c2ccc(O)cc2)C(=O)C(O)=C1c1ccc(O)cc1`, the result with HeLa [2], in the data set on HepG2 [3] and with A549 [5] was inactive. Besides, the IC50 at Alpha glucosidase [4] is 22.7 µM. This molecule also returned a CC50 in data set [6] of more than 100 µM.

On to `COc1cc(-c2ccc(OCCN3CCCC3)cc2)c(OC)c(O)c1-c1ccc(O)cc1`, for which the outcome in the data set on HeLa [2], with HepG2 [3] and in the data set with A549 [5] was inactive.

As to `COc1cc(-c2ccc(OCC=C(C)C)cc2)c(OC)c(O)c1-c1ccc(OCC=C(C)C)cc1`, the inhibition entry at Alpha glucosidase [10] was “inactive”. In the data set with A549 [5], the outcome was inactive. Also, the midpoint of cytotoxicity in data set [6], the CC50, lay at 31.1 µM. Further, the IC50 in the data set with HeLa [7] amounted to 2.76 µM; with HepG2 [8], 4.1 µM.

On to `CCCOc1ccc(-c2cc(OC)c(-c3ccc(OCCC)cc3)c(O)c2OC)cc1`, for which the Activity result in data set [1] is given as “Non-Toxic”. The outcome with HeLa [2], with HepG2 [3] and with A549 [5] was inactive. Besides, the inhibition entry on Alpha glucosidase [10] is “inactive”.

For the molecule `CCCOc1ccc(-c2cc(OC)c(-c3ccc(OCCC)cc3)c(OCCC)c2OC)cc1`, the Activity result in data set [1] is “Non-Toxic”. The outcome with HeLa [2], in the data set with HepG2 [3] and with A549 [5] was inactive. Also, the inhibition entry at Alpha glucosidase [10] was “inactive”.

With `C=CCOc1c(OC)c(-c2ccc(O)cc2)cc(OC)c1-c1ccc(O)cc1`, the Activity result in data set [1] is given as “Non-Toxic”. The outcome in the data set with HeLa [2], with HepG2 [3] and with A549 [5] was inactive. At Alpha glucosidase [4], this molecule gave an IC50 of 83.8 µM.

Turning to `CCCOc1ccc(-c2c(OC)cc(-c3ccc(O)cc3)c(OC)c2OCCC)cc1`, the outcome in the data set with HeLa [2], in the data set on HepG2 [3] and in the data set on A549 [5] was inactive. On Alpha glucosidase [4], the IC50 was determined as 10.7 µM. The molecule also yielded a CC50 in data set [6] of 13.1 µM.

Regarding `CCCOc1ccc(-c2c(OC)cc(-c3ccc(O)cc3)c(OC)c2O)cc1`, the Activity entry in [1] is “Non-Toxic”. In addition, the result with HeLa [2] and with HepG2 [3] was inactive. In addition, the figures for the IC50 at Alpha glucosidase [4] and in the data set on A549 [9] were 12.3 µM and 10.3 µM, respectively.

`COc1cc(-c2ccc(O)cc2)c(OC)c(O)c1-c1ccc(OCCBr)cc1`: the outcome in the data set on HeLa [2], with HepG2 [3] and with A549 [5] was inactive. At Alpha glucosidase [4], the IC50 is 18 µM. The CC50 in data set [6] came out at 54.4 µM.

Regarding `COc1cc(-c2ccc(OCc3ccc(-c4ccccc4)cc3)cc2)c(OC)c(O)c1-c1ccc(O)cc1`, the outcome in the data set with HeLa [2], in the data set with HepG2 [3] and with A549 [5] was inactive. The IC50 at Alpha glucosidase [4] turned out to be 12.2 µM. In data set [6], this molecule registered a CC50 of 12.7 µM.

For `COc1cc(-c2ccc(OCCBr)cc2)c(OC)c(OCCBr)c1-c1ccc(OCCBr)cc1`, in data set [1], the Activity result was “Non-Toxic”. The result with HeLa [2], in the data set on HepG2 [3] and in the data set with A549 [5] was inactive. Moreover, the inhibition result on Alpha glucosidase [10] is “inactive”.

Turning to `COc1c(Cl)c(-c2ccc(O)cc2)c(OC)c(O)c1-c1ccc(O)cc1`, in [1], the Activity entry was “Non-Toxic”. Moreover, the outcome with HeLa [2], in the data set with HepG2 [3] and in the data set with A549 [5] was inactive. This molecule returned an IC50 on Alpha glucosidase [4] of 31.3 µM.

Turning to `C=CCOc1ccc(-c2cc(OC)c(-c3ccc(OCC=C)cc3)c(OCC=C)c2OC)cc1`, the Activity entry in [1] is recorded as “Non-Toxic”. In addition, the result in the data set with HepG2 [3] and with A549 [5] was inactive. On Alpha glucosidase [10], the inhibition result is “inactive”. Besides, it took 10.1 µM to reach half-maximal inhibition in the data set on HeLa [7] (IC50).

`COc1cc(-c2ccc(O)cc2)c(OC)c(OCCN2CCCC2)c1-c1ccc(O)cc1`: the outcome with HeLa [2], with HepG2 [3] and in the data set on A549 [5] was inactive.

`COc1cccc2c1C(=O)c1c(O)c3c(c(O)c1C2=O)C[C@@](O)(C(=O)CO)C[C@@H]3O[C@H]1C[C@H](N)[C@H](O)[C@H](C)O1` [DOXORUBICIN HYDROCHLORIDE]: 0.16 µM corresponded to half-maximal inhibition in the data set with A549 [9] (IC50).

Regarding `COc1cc(-c2ccc(O)cc2)c(OC)c(OC(=O)c2ccco2)c1-c1ccc(O)cc1`, the Activity entry in [1] is reported as “Non-Toxic”. Moreover, the result with HeLa [2], in the data set on HepG2 [3] and with A549 [5] was inactive. The molecule also had an IC50 against Alpha glucosidase [4] of 35.4 µM.

For `COc1cc(-c2ccc(O)cc2)c(OC)c(O)c1-c1ccc(OC(c2ccccc2)c2ccccc2)cc1`, the result in the data set with HeLa [2], with HepG2 [3] and in the data set on A549 [5] was inactive. Besides, in [6], half-maximal cytotoxicity (CC50) was put at 48.3 µM.

Consider `C#CCOc1ccc(-c2cc(OC)c(-c3ccc(O)cc3)c(OCC#C)c2OC)cc1`, for which the IC50 on Alpha glucosidase [4] was 20.1 µM; with HeLa [7], 0.68 µM; with HepG2 [8], 1.23 µM; in the data set on A549 [9], 0.79 µM. Moreover, the CC50 in [6] was 2.31 µM.

Turning to `COc1cc(-c2ccc(OCC(=O)O)cc2)c(OC)c(O)c1-c1ccc(O)cc1`, the outcome in the data set on HeLa [2], in the data set with HepG2 [3] and in the data set on A549 [5] was inactive.

For the molecule `C=CCOc1ccc(-c2cc(OC)c(-c3ccc(OCC=C)cc3)c(O)c2OC)cc1`, the Activity entry in [1] is recorded as “Non-Toxic”. Besides, the outcome in the data set on HeLa [2], in the data set on HepG2 [3] and in the data set on A549 [5] was inactive. For the same molecule, at Alpha glucosidase [10], the inhibition result was “inactive”.

For the molecule `CCCOc1ccc(-c2cc(OC)c(-c3ccc(O)cc3)c(OCCC)c2OC)cc1`, the IC50 against Alpha glucosidase [4] was 8.69 µM; with HeLa [7], 0.18 µM; in the data set on HepG2 [8], 0.49 µM; in the data set with A549 [9] it was 0.26 µM. Further, it took 0.87 µM to reach half-maximal cytotoxicity in data set [6] (CC50).

For `C#CCOc1ccc(-c2cc(OC)c(-c3ccc(OCC#C)cc3)c(OCC#C)c2OC)cc1`, in data set [1], the Activity entry is recorded as “Non-Toxic”. Also, the result in the data set on HeLa [2], with HepG2 [3] and in the data set with A549 [5] was inactive. In addition, the inhibition entry on Alpha glucosidase [10] is “inactive”.

Regarding `COc1cc(-c2ccc(OCC=C(C)C)cc2)c(OC)c(OCC=C(C)C)c1-c1ccc(OCC=C(C)C)cc1`, the Activity entry in data set [1] is “Non-Toxic”. For the same molecule, the outcome with HeLa [2], with HepG2 [3] and with A549 [5] was inactive. In addition, at Alpha glucosidase [10], the inhibition result was “inactive”.

With `COc1cc(-c2ccc(O)cc2)c(OC)c(OC(=O)c2ccc(F)cc2)c1-c1ccc(O)cc1`, in data set [1], the Activity entry is “Non-Toxic”. Besides, the outcome with HeLa [2], with HepG2 [3] and with A549 [5] was inactive.

As to `COc1cc(-c2ccc(OC(c3ccccc3)c3ccccc3)cc2)c(OC)c(O)c1-c1ccc(O)cc1`, the result with HeLa [2], with HepG2 [3] and with A549 [5] was inactive. In [6], this molecule showed a CC50 of 22.3 µM.

Turning to `COc1cc(-c2ccc(OCCBr)cc2)c(OC)c(OCCBr)c1-c1ccc(O)cc1`, the IC50 on Alpha glucosidase [4] came out at 6.67 µM; in the data set with HeLa [7], 1.58 µM; in the data set with HepG2 [8], 3.85 µM; in the data set with A549 [9] it was 3.06 µM. Moreover, the CC50 in data set [6] was found to be 5.05 µM.

On to `COc1cc(-c2ccc(O)cc2)c(OC)c(OC(C)=O)c1-c1ccc(O)cc1`, for which, in data set [1], the Activity entry is “Non-Toxic”. Besides, the outcome in the data set on HeLa [2], with HepG2 [3] and in the data set on A549 [5] was inactive.

For `COc1cc(-c2ccc(O)cc2)c(OC)c(O)c1-c1ccc(O)c(CC=C(C)C)c1`, the outcome in the data set with HeLa [2] and in the data set with A549 [5] was inactive. The IC50 at Alpha glucosidase [4] is 25.7 µM; in the data set with HepG2 [8] it was 2.74 µM. This molecule also showed a CC50 in data set [6] of 0.91 µM.

As to `COc1cc(-c2ccc(OCCBr)cc2)c(OC)c(O)c1-c1ccc(O)cc1`, the result with HeLa [2], with HepG2 [3] and with A549 [5] was inactive. On Alpha glucosidase [4], this molecule returned a concentration for half-maximal inhibition (IC50) of 16.1 µM. The cytotoxic concentration (CC50) in [6] stood at 95.4 µM.

`C=CCOc1ccc(-c2cc(OC)c(-c3ccc(O)cc3)c(O)c2OC)cc1`: the Activity result in [1] is reported as “Non-Toxic”. For the same molecule, the outcome in the data set with HeLa [2], with HepG2 [3] and in the data set with A549 [5] was inactive. Further, the half-maximal inhibitory concentration (IC50) at Alpha glucosidase [4] came out at 26.5 µM.

Consider `COc1cc(-c2ccc(OCCBr)cc2)c(OC)c(O)c1-c1ccc(OCCBr)cc1`, for which the Activity result in data set [1] is “Non-Toxic”. Moreover, the result with HeLa [2], in the data set with HepG2 [3] and in the data set with A549 [5] was inactive. Further, the inhibition entry on Alpha glucosidase [10] was “inactive”.

`COc1cc(-c2ccc(OCC=C(C)C)cc2)c(OC)c(OCC=C(C)C)c1-c1ccc(O)cc1`: the IC50 at Alpha glucosidase [4] is 53.1 µM; in the data set on HeLa [7], 3.37 µM; in the data set with HepG2 [8], 5.26 µM; in the data set with A549 [9], 3.36 µM. This molecule also gave a CC50 in [6] of 7.34 µM.

What is called IC50 is the point on the concentration scale where inhibition reaches its midpoint. A high value points to a need for much substance. Usually CC50 stands for the concentration giving 50% cytotoxicity. A higher CC50 goes with lower toxicity to the cells.
